What was measured:
[1] = system: Hh signaling (Gli1 expression) in Ptch1-deficient MEFs; experiment: Western blot of Gli1 protein in Ptch1-deficient MEFs (Ptch1fl/fl + Cre lentivirus); format: cell-based, mouse
Excerpt: (§1) Having observed that MB cell proliferation was compromised after cholesterol deficiency, it was postulated that cholesterol may promote Hh pathway activation. Western blotting: Cells and tissues were lysed in RIPA buffer (Thermo) supplemented with protease (Roche) and phosphatase (Thermo) inhibitors cocktail. Total protein lysates were separated in 8% SDS-PAGE and transferred on PVDF membrane. Membranes were probed with antibodies against GLI1 (Cell Signaling, 1:1000), NSDHL (Proteintech, 1:1000), Ptch1 (Novus Biologicals, 1:1000), GAPDH (Sigma-Aldrich, 1:1000). Western Blot signals were detected with SuperSignal West Pico Substrate and exposed on films.
(§2) Primary mouse embryonic fibroblasts (MEFs) from Ptch1fl/fl mice carrying a proportion of Ptch1 gene flanked by loxp sites (Ellis et al., Genesis, 2003, 36, 158-161), or SmoM2 mice expressing a constitutively activated form of Smo upon Cre recombination (Jeong et al., Genes & Develop., 2004, 18, 937-951) were generated. MEFs were then infected with a lentivirus carrying Cre recombinase to activate Hh signaling, or with an empty vector as a control. At 48 hours after the infection, MEFs were harvested to examine Gli1 protein expression by Western blotting. […]

[2] = system: MB cells isolated from Ptch1+/− mice; experiment: Ki67 immunocytochemistry of cultured primary MB cells; format: cell-based, mouse
Description: MB cells isolated from Ptch1^+/− mice were cultured with NB-B27 culture medium (lacking cholesterol) in the presence of simvastatin or triparanol at designated concentrations.
Cell culture: Primary mouse medulloblastoma cells were isolated from full-blown mouse-derived tumor as described before (Yang et al., 2008, Cancer Cell, 14, 135-145). Obtained cells were cultured on glass coverslips coated with 0.1 mg/ml poly-D-lysine (Millipore, A-003-E). Cells were pulsed with 10 μM of BrdU (Millipore, 19-160) for 2 hours prior to the material collection time point. […]
Histology and immunohistochemistry: Cultured primary MB cells were fixed with 4% PFA on PBS for 15 minutes, permeabilized, and blocked in 10% normal goat serum on PBST (PBS, 0.1% Triton-X100) for 1 hour at room temperature and stained against Ki67 (Abcam, ab15580, 1:1000), NeuN (Abcam, ab104224, 1:200), Caspase 3 (Cell Signaling, 9662, 1:500), BrdU (Sigma-Aldrich, B-8434, 1:500), mCherry (Abcam, ab167453, 1:500), Zic1 (Generous gift from Dr. Sigal, Dana Farber Research Institute, 1:200), S1000 (Sigma-Aldrich, 1:500), YFP (Life Technologies, 1:500).
Prior to BrdU immunostaining, cells were incubated in pH 5.0 buffer for 30 minutes at 37 C. Secondary antibodies were applied at dilution 1:500 on 10% normal goat serum on PBST for 2 hours at room temperature. Samples were counterstained with DAPI and mounted with Fluoromount-G.
MB cells were isolated from Ptc^+/− mouse and cultured in presence of simvastatin (see, FIG. 2A, panels B-D) or triparanol (see, FIG. 2A, panel E), and water-soluble cholesterol (see, FIG. 2A, panels F-J). After 48 hours in vitro, culture cells were fixed, stained against Ki67 (red), and counterstained with DAPI. […] Significance asterisk key: p value <0.05 (*), p<0.01 (**), p<0.001 (***), p<0.0001 (****).

[3] = system: Hh signaling (Gli1 protein expression) in NIH3T3 cells; experiment: Western blot of Gli1 protein in NIH3T3 cells upon Hh treatment; format: cell-based
Excerpt: as §1
MB cells isolated from Ptch1^+/− mice were treated with Simvastatin with and without addition of WSC. At 48 hours after the treatment, cells were harvested to measure Hh signaling through examining Gli1 expression by Western blotting. To further examine the requirement of cholesterol in Hh signal transduction, NIH3T3 cells that have all components involved in Hh signaling were utilized.
FIG. 4 (panels C and D) show Western blot analysis of GLI1 protein expression in Ptcfl/fl (see, FIG. 4, panel C) and SmoM2 MEFs (see, FIG. 4, panel D) following CreYFP carrying lentivirus infection and subsequent simvastatin, triparanol and water soluble cholesterol treatment for 48 hours in vitro. […] GAPDH was used as a loading control. […]

[4] = system: Hh signaling (Gli1 expression) in MB cells isolated from Ptch1+/− mice; experiment: Western blot of Gli1 protein expression in Ptc+/− MB cells; format: cell-based, mouse
Excerpt: as §1, with “Western blotting: Cells and tissues were lysed in RIPA buffer (Thermo) supplemented with protease (Roche) and phosphatase (Thermo) inhibitors cocktail. Total protein lysates were separated in 8% SDS-PAGE and transferred on PVDF membrane. Membranes were probed with antibodies against Gli1 (Cell Signaling, 1:1000) and GAPDH (Sigma-Aldrich, 1:1000). Western Blot signals were detected with SuperSignal West Pico Substrate and exposed on films. […] Having” for “Having”, “films. MB cells isolated from Ptch1^+/− mice were treated with Simvastatin with and without addition of WSC. At 48 hours after the treatment, cells were harvested to measure Hh signaling through examining Gli1 expression by Western blotting. […]” for “films.”

[5] = system: Hh signaling (Gli1 protein expression) in Smo-activated MEFs; experiment: Western blot of Gli1 protein in Smo-activated (SmoM2) MEFs; format: cell-based, mouse; conditions: 48 hours
Excerpt: as §1, §2

[6] = system: MB cells; experiment: MTT viability assay of MB cells; format: cell-based, mouse; conditions: after treatment with simvastatin or triparanol
[7] = system: Hh signaling (Ptch1 protein expression) in Gli1-overexpressed NIH3T3 cells; experiment: Western blot of Ptch1 protein in Gli1-overexpressed NIH3T3 cells; format: cell-based; conditions: 48 hours
Excerpt: as §1
FIG. 4 (panels C and D) show Western blot analysis of GLI1 protein expression in Ptcfl/fl (see, FIG. 4, panel C) and SmoM2 MEFs (see, FIG. 4, panel D) following CreYFP carrying lentivirus infection and subsequent simvastatin, triparanol and water soluble cholesterol treatment for 48 hours in vitro. […] GAPDH was used as a loading control. […] In the absence of Hh ligand, its receptor Ptch1, tethers pathway effector Smo. Bound to Ptch1, Hh releases Smo, causes activation of Gli1 transcription factor, and leads to transcription of Hh pathway genes (Gli1, Ptch1, etc.). Cholesterol promotes Smo activation during Hh signal transduction. […]

[8] = system: Ptc+/− MB subcutaneous allograft; experiment: Ptc+/− MB subcutaneous allograft in CB17/SCID mice; format: in vivo, mouse; conditions: vismodegib 5 mg/kg/day, per os

CC(C)CCC[C@@H](C)[C@H]1CC[C@H]2[C@@H]3CC=C4C[C@@H](O)CC[C@]4(C)[C@H]3CC[C@]12C [WSC, cholesterol]
restoration of Gli1 expression inhibited by simvastatin or triparanol ([1]; addition of exogenous cholesterol): restored
tumor cell proliferation over time (Ki67 immunocytochemistry) ([2]; 15 μM WSC, 0 to 96 hours time course): prolonged tumor cell proliferation
rescue of repressed MB cell proliferation (Ki67) ([2]; addition of cholesterol after simvastatin or triparanol treatment, 48 hours): significantly rescued
MB cell proliferation in control culture (Ki67) ([2]; exogenous cholesterol, control culture without inhibitor): enhanced MB cell proliferation
Gli1 protein expression after Simvastatin or Triparanol treatment ([3]; NIH3T3 cells, exogenous cholesterol added): upregulated
Gli1 expression levels (western blotting) ([4]; 15 μM WSC, in vitro for 96 hours): rescued Gli1 expression levels
Gli1 expression in Simvastatin treated MB cells ([4]; addition of exogenous cholesterol, 48 hours): rescued Gli1 expression

CCN(CC)CCOc1ccc(C(O)(Cc2ccc(Cl)cc2)c2ccc(C)cc2)cc1 (centres unmarked) [triparanol]
up-regulation of Gli1 protein expression [5]: not altered
proliferation of MB cells by MTT viability assay [6]: Repressed proliferation
Gli1 expression ([1]; 48 hours): dramatically inhibited
upregulation of Ptch1 protein expression [7]: not altered
percentage of proliferating MB cells (Ki67+) ([2]; 48 hours in culture, NB-B27 medium lacking cholesterol, vs DMSO control): Reduced proliferation
Gli1 protein expression ([3]; NIH3T3 cells upon Hh treatment, 48 hours): significantly repressed

CS(=O)(=O)c1ccc(C(=O)Nc2ccc(Cl)c(-c3ccccn3)c2)c(Cl)c1 [vismodegib (GDC0449), vismodegib]
MB growth [8]: prohibited MB growth
